Laboratory results as given in patent publication US20230390345A1, “COMBINATION THERAPY COMPRISING HER-2-DC1 VACCINE, A PROBIOTIC, AND SEMAPHORIN” (H. LEE MOFFITT CANCER CENTER AND RESEARCH INSTITUTE, INC., priority 2020, published 2023).

Experiments:
TUBO tumors = assay: Monotherapies in HER2+ BC murine model (FIG. 8); type: in vivo, Balb/C mice; conditions: monotherapy
Description: (§1) Balb/C mice or C57BL/6 mice received tumor cells on day 0 followed by different treatments; two doses of Taxol given intraperitoneally (i.p.) once a week; CDK inhibitor, abemaciclib was administered by oral gavage till end point; Anti-PD-L1 was given i.p. twice a week until end point; DC1 vaccine was given intratumorally.

4T1 = assay: Therapies in TNBC model 4T1 (FIG. 8); type: in vivo, Balb/C mice; conditions: 4T1 TNBC model
Description: as §1

CC(=O)O[C@H]1C(=O)[C@@]2(C)[C@H]([C@H](OC(=O)c3ccccc3)[C@]3(O)C[C@H](OC(=O)[C@H](O)[C@@H](NC(=O)c4ccccc4)c4ccccc4)C(C)=C1C3(C)C)[C@]1(OC(C)=O)CO[C@@H]1C[C@@H]2O [taxol, paclitaxel]
tumor growth (TUBO tumors): modestly delayed tumor growth | tumor growth (4T1): no effect on tumor growth
